Source: patent publication US20240336566A1, “CRYSTALLINE FORMS OF A COMPOUND FOR THE TARGETED DEGRADATION OF THE ANDROGEN RECEPTOR” (Arvinas Operations, Inc., priority 2023, published 2024)

Experiment: Primary crystallization screen: XRPD before and after drying at 40° C.
Format: physicochemical
Parameters: key to XRPD Pattern Post-Thermal Cycling / XRPD Pattern Anti-Solvent Addition / XRPD Pattern Evaporation / XRPD Pattern Post-Thermal Cycling (dried): 1—Free base Pattern 1; 2—Free base Pattern 2; 3—Free base Pattern 3; 4—Free base Pattern 4; S—Potential Salt Pattern 1; A—Amorphous; C—Counterion present; *—Poorly crystalline; t—Results obtained from temperature cycling; e—Results obtained from evaporation
Method: • 34×40 mg of Compound A was weighed into vials before the selected solvents were added to prepare slurries, where possible. See Table 29 for a list of solvent systems used and the volume of solvent used. • Stirrer bars were added to the vials, before the vials were sealed and temperature cycled with stirring between 5° C. and 40° C. The heating rate was 0.1° C./min and the samples were held at 5° C. and 40° C. for 2 hours. • After temperature cycling for 4 days, observations were made (see Table 29). Slurries were centrifuge filtered and the solids were analyzed by XRPD • The solids were dried at 40° C. for approximately 18 h before being re-analyzed by XRPD. • Saturated solutions were then split into 3 vials for the following experiments • Evaporation at ambient temperature • Cooling (5° C.). • Where no solids were obtained after 72 hours, the samples were moved to the freezer at −20° C. for further cooling. • Where no solids were obtained from further cooling, the samples were allowed to evaporate at ambient temperature. • Anti-solvent addition at ambient temperature. • Where no solids were obtained after 72 hours the samples were moved to the freezer at −20° C. to encourage crystallization. • Where no solids were obtained from cooling, the samples were allowed to evaporate at ambient temperature.

[1] = Acetonitrile:Water (75:25% v/v)
[2] = Dichloromethane:Methanol (50:50% v/v)
[3] = Dichloromethane:Methanol (75:25% v/v)

SMILES: COc1cc(O[C@H]2C(C)(C)[C@H](NC(=O)c3ccc(N4CCC(CN5CCN(c6ccc(C(=O)N[C@H]7CCC(=O)NC7=O)c(F)c6)CC5)CC4)cc3)C2(C)C)ccc1C#N [Compound A, 4-(4-((1-(4-(((1R,3R)-3-(4-cyano-3-methoxyphenoxy)-2,2,4,4-tetramethylcyclobutyl)carbamoyl)phenyl)piperidin-4-yl)methyl)piperazin-1-yl)-N—((S)-2,6-dioxopiperidin-3-yl)-2-fluorobenzamide]
- XRPD Pattern Anti-Solvent Addition (1,4-Dioxane): A
- XRPD Pattern Cooling (1,4-Dioxane): A e
- XRPD Pattern Evaporation (1,4-Dioxane): A x
- XRPD Pattern Post-Thermal Cycling (1,4-Dioxane): A
- XRPD Pattern Post-Thermal Cycling (dried) (1,4-Dioxane): A *
- XRPD Pattern Evaporation (1-Propanol): A
- XRPD Pattern Evaporation (2-Butanone (MEK)): 1
- XRPD Pattern Evaporation (Acetone:Water (90:10% v/v)): 2
- XRPD Pattern Anti-Solvent Addition (Acetonitrile): A x
- XRPD Pattern Evaporation (Acetonitrile): A +
- XRPD Pattern Post-Thermal Cycling (Acetonitrile): 1
- XRPD Pattern Post-Thermal Cycling (dried) (Acetonitrile): 1
- XRPD Pattern Evaporation [1]: 6 (6—Free base Pattern 6)
- XRPD Pattern Post-Thermal Cycling [1]: 6 (6—Free base Pattern 6)
- XRPD Pattern Post-Thermal Cycling (dried) [1]: 6 (6—Free base Pattern 6)
- XRPD Pattern Post-Thermal Cycling (Anisole): 5 (5—Free base Pattern 5)
- XRPD Pattern Post-Thermal Cycling (dried) (Anisole): 8 (8—Free base Pattern 8)
- XRPD Pattern Post-Thermal Cycling (Butyl acetate): 1
- XRPD Pattern Post-Thermal Cycling (dried) (Butyl acetate): 1
- XRPD Pattern Post-Thermal Cycling (Dichloromethane): 6 (6—Free base Pattern 6)
- XRPD Pattern Post-Thermal Cycling (dried) (Dichloromethane): 6 (6—Free base Pattern 6)
- XRPD Pattern Post-Thermal Cycling [2]: 2
- XRPD Pattern Post-Thermal Cycling (dried) [2]: 2
- XRPD Pattern Anti-Solvent Addition [3]: A
- XRPD Pattern Cooling [3]: A e
- XRPD Pattern Evaporation (Diethyl ether): A x
- XRPD Pattern Evaporation (Ethanol): A x
- XRPD Pattern Evaporation (Ethanol:Water (50:50% v/v)): A x
- XRPD Pattern Post-Thermal Cycling (Ethyl acetate): 1
- XRPD Pattern Post-Thermal Cycling (dried) (Ethyl acetate): 1
- XRPD Pattern Evaporation (Isopropyl acetate): A x
- XRPD Pattern Cooling (Methanol): A e
- XRPD Pattern Evaporation (Methanol): A x
- XRPD Pattern Evaporation (Methylisobutyl ketone): A x
- XRPD Pattern Post-Thermal Cycling (Methylisobutyl ketone): 1
- XRPD Pattern Post-Thermal Cycling (dried) (Methylisobutyl ketone): 1
- XRPD Pattern Anti-Solvent Addition (N,N′-Dimethylacetamide): 1
- XRPD Pattern Anti-Solvent Addition (N,N′-Dimethylformamide): 1
- XRPD Pattern Cooling (N,N′-Dimethylformamide): A e
- XRPD Pattern Evaporation (N,N′-Dimethylformamide): 1
- XRPD Pattern Post-Thermal Cycling (Tetrahydrofuran): 1
- XRPD Pattern Post-Thermal Cycling (dried) (Tetrahydrofuran): 1
- XRPD Pattern Anti-Solvent Addition (Tetrahydrofuran:Water (98:2% v/v)): A
- XRPD Pattern Post-Thermal Cycling (Toluene): 7 (7—Free base Pattern 7)
- XRPD Pattern Post-Thermal Cycling (dried) (Toluene): 8 (8—Free base Pattern 8)
- XRPD Pattern Post-Thermal Cycling (Water): A
- XRPD Pattern Post-Thermal Cycling (dried) (Water): A
